Experimental data from the SangsterLogP compilation.

COc1cccc(/C=C/C(=O)O)c1 gave a logP of 2.37.
Work on CCC(=O)c1ccccc1 yielded a logP of 2.3.
In the case of O=C(O)CCn1ccc2ccccc21, the logP is reported as 2.2.
Compound O=C(O)C1CCCCC1 has a logP of 1.96.
For O=C(O)c1cc2ccccc2cc1O, the logP was 3.05.
With O=C(O)Cn1ccc2ccccc21 the logP was 1.92.
O=C(O)c1cc(O)c(O)c(O)c1 showed a logP of 0.72.
In the case of O=C(O)Cc1ccc(O)cc1, the logP is reported as 1.26.
Compound CC(C)CCOC(=O)c1ccccc1 has a logP of 4.1.
For O=C(O)Cn1ccc2cc(O)ccc21, the logP was 1.17.
Compound O=C(O)Cc1cc(O)ccc1O has a logP of 0.86.
Compound COc1cccc(C(O)C(=O)O)c1 (centres undefined) has a logP of 1.33.
With COc1cc(CC(=O)O)ccc1O the logP was 1.18.
O=C(O)Cc1ccccc1O gave a logP of 1.47.
In the case of O=C(O)Cc1ccc(O)c(O)c1, the logP is reported as 0.98.
For COc1cc(C(O)C(=O)O)ccc1O (centres undefined), the logP was 0.84.
O=C(O)c1cc(O)cc(O)c1 showed a logP of 0.94.
Compound O=C(O)c1ccc(O)c(O)c1 has a logP of 0.99.
Work on CCCCOC(=O)c1ccccc1 yielded a logP of 3.68.
